Measured values reported in patent US20250197388A1, “COMPOUNDS, PHARMACEUTICAL COMPOSITIONS AND METHODS FOR TREATING INFLAMMATORY BOWEL DISEASE” (FLAGSHIP PIONEERING INNOVATIONS VI, LLC, priority 2022, published 2025).

What was measured:
[1] = Compound interconversion monitored by 1H-NMR in neutral aqueous buffer; assay type: physicochemical; conditions: 37° C. in the neutral aqueous buffer
Description: This examples provide the kinetics of compounds A-2 and A-3. More specifically, A-6 is a mixture of compounds A-2 and A-3 and interconvert in solutions.
In this example, A-6 was combined with […] of Na3PO4, DCl, and D2O at a pH of 7-7.5. This solution was then monitored using 1H-NMR at 37° C.
Interconversion between compounds A-2 and A-3 was seen and monitored for 5 days. See, Table 1.

Dectin-1b = target: T1, Dectin-1b (Homo sapiens, UniProt Q9BXN2); assay: Dectin-1 assay, HEK-Blue Dectin-1b SEAP reporter cells stimulated with beta-glucan peptide (BGP); assay type: cell-based; conditions: HEK-Blue Dectin-1b cells; compounds at 1, 10 or 30 μM for 6 hours, then BGP 30 μg/mL 16-18 hours; SEAP adjusted by cell viability
T1 construct: host or cells: HEK-Blue Dectin-1b reporter cells (HEK293-derived)
T1 sequence (Q9BXN2 1-201 isoform Q9BXN2-2): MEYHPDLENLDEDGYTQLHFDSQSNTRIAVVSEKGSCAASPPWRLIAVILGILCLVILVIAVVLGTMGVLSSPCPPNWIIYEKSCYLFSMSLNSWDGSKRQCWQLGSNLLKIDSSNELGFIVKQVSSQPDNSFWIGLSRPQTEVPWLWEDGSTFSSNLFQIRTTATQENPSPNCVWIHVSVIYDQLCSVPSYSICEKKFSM
Description: Compounds described herein are added to mammalian cells for bioactivity assessment. The HEK-Blue Dectin-1b cells line (InVivoGen) releases a reporter protein (secreted embryonic alkaline phosphatase, SEAP) to the culture supernatant in response to Dectin-1 activation. HEK-Blue reporter cells were grown in DMEM culture media with 10% decomplemented fetal calf serum (InvivoGen, 1% Pen/Strep antibiotic (InvivoGen), 0.2% Normocin antibiotic (InvivoGen). On the day prior to the assay, cells were seeded in a 96 flat-bottom well plate at 50,000 cells/well and further incubated for 20 hours. On the day of the assay cells were incubated with 1 μM, 10 μM or 30 μM of the compounds described herein or with 1 μM of the SYKi IV Dectin-1b Inhibitor (Millipore) or with DMSO (vehicle control) for 6 hours, followed by the addition of beta-glucan peptide (BGP, a Dectin-1 ligand at 30 μg/mL) and incubation for 16-18 hours. After incubation was concluded, the cultures supernatants were collected and Dectin-1 related activity was assessed by measurement of the SEAP-reporter protein presence, using Quanti-Blue assay (Invivogen) and these values were adjusted by the Cell Viability levels that was assessed using the Cell-Titer-Glo2 Reagent (Promega).
Results represent cell number adjusted SEAP levels in a triplicate setting for each condition and cell numbers and viability corrections reflected less than 5% corrections. See, e.g., FIG. 1 for compound A-3.

[2] = test system: Zymosan-induced production of IL-12p40 in monocyte-derived dendritic cells; assay: Monocyte derived DC (MoDC) assay, Zymosan-induced IL-12p40 (Luminex/ELISA); assay type: cell-based, human
Source text: Monocyte derived DC (MoDC) were differentiated from healthy human donor derived CD14+ monocytes. Commercially available freshly prepared Leukopaks were obtained from healthy blood donor and kept refrigerated on ice before spin centrifuged and the pelleted cells are rinsed and resuspended with MACS buffer (Miltenyi Biotec). Next, CD14+ monocytes were purified using MultiMACS™ Cell24 Separator-Plus instrumentation and reagents according to the manufacturer (Miltenyi Biotec) instructions. The resulting purified CD14^+ cell fraction was washed, enumerated, and subsequently cryopreserved for later use. At the experiment first day cryopreserved CD14′ cells were thawed, rinsed with culture media, and then resuspended in culture media principally composed of RPMI (Invitrogen) supplemented with 10% v/v heat inactivated FBS. For generation of MoDC, these CD14^+ cells were enumerated and seeded into 75 cm^2 tissue culture flasks in 30 mL of culture media supplemented with GM-CSF (40-100 ng/mL) and IL-4 (25 ng/mL). Every other day, half of the culture media was replaced with fresh media (containing the same cytokine supplementation) and after 6-7 days of culture, fully differentiated and matured MoDC were obtained as confirmed by conventional Immuno-phenotype markers (levels of expression or absence of surface CD80, CD83, CD86, CD209, HLA-DR, CD14 & CD64) that were verified by flow-cytometry. Fully differentiated (mature) MoDCs, were seeded into 96 flat-well plates and incubated with a various concentration of the compound described herein, or with control solution (DMSO), or with the pharmacologic inhibitors Cyclosporin-A (CsA) and BAY 61-3606 (which is a known inhibitor of Syk kinase) for 6 hours. Next, the MoDC culture well were added with Dectin-1(CLEC7a1)-ligand (Zymosan at 5 μg/mL), or the Toll-like receptor agonist R848, and further incubated for 18-20 hours. After incubation concluded, culture supernatants were collected, and the levels of inflammatory cytokines and chemokines was measured in a triplicate setting for each condition by Luminex® multiplex assay (FIG. 2) or by ELISA (FIG. 3).

equilibrium ratio of interconversion [1]: about 1.5/1
time to nearly reach interconversion equilibrium [1]: about 7 hours
Compound: CN1[C@@H](C(=O)O)CS[C@H]1[C@@H]1CSC(c2ccccc2O)=N1 (single isomer, unassigned) [Compound A-3]
Activity (Dectin-1b): <30 µM
inhibition of Zymosan-induced production of IL-12p40 ([2]; MoDC from healthy human donors 1, 2 and 3, 15.5 nM to 1 μM (FIGS. 6A-6C)): inhibition
concentration of maximal inhibition of Zymosan-induced IL-12p40 ([2]; donors 1, 2 and 3, the highest concentration tested): 1 µM
inhibition of zymosan-induced IL-12p40 ([2]; primary human MoDC from healthy donors 5 and 6, 0.5 μM final concentration (FIGS. 11A, 11B)): does not achieve statistically significant inhibition
